Series [1] has as its target T1, mβG-eB7 (Mus musculus, UniProt P12265, G265D/I320V).
T1 construct: expressed in transfected cells
T1 sequence (P12265 with tags, fused parts or gaps G265D/I320V): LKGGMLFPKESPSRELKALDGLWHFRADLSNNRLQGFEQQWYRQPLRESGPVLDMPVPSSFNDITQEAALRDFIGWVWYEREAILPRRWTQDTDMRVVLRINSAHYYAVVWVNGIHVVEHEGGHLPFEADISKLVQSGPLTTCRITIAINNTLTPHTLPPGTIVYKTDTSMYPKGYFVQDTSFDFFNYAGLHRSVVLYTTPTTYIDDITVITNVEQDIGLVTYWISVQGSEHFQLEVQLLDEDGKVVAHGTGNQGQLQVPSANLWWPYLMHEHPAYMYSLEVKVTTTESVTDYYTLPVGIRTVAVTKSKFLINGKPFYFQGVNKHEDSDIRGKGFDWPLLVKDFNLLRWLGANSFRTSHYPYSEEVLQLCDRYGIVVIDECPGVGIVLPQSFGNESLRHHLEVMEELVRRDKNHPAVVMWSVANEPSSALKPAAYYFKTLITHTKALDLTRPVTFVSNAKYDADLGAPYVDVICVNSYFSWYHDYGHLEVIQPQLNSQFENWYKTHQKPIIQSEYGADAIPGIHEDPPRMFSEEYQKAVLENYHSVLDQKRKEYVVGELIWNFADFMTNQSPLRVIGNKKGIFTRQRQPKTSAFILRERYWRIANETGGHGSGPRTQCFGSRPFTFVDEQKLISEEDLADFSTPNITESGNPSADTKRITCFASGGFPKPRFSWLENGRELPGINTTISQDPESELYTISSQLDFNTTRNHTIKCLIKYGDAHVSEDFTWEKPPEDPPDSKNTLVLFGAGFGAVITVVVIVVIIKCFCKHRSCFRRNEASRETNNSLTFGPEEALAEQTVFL
The experiment in a line: ^124I-ph-trap-glu conversion by CT26/mβG-eB7 or CT26 cells, cell radioactivity in gamma-counter. As to conditions: graded concentrations, room temperature, about 40 mins. It is filed as cell-based. The method, then:
Graded concentrations of the ^124I-trap-glu probe was added to 96-well microtiter plates coated with CT26/mβG-eB7 (▪) or CT26 cells (□) in phosphate-buffered saline at room temperature for about 40 mins. The plates were then washed to remove non-precipitated probes and the cells were collected by treatment with trypsin. The radioactivity of cells was then measured in a gamma-counter.

Series [2] concerns the target Recombinant E. coli β-glucuronidase (Escherichia coli, UniProt P05804). The experiment in a line: Trapping of FITC-trap-glu on coated β-glucuronidase detected by anti-FITC antibody ELISA. It is filed as biochemical. The conditions noted are these: β-glucuronidase and BSA about 2 μg/well, serial dilutions, about 60 mins. On the procedure:
Recombinant E. coli β-glucuronidase (about 2 μg/well) and bovine serum albumin (about 2 μg/well) were coated in 96 well microtiter plates and blocked with about 2% of skin milk. Serial dilutions of the FITC-trap-glu probe in phosphate-buffered saline were added to the wells of the microtiter plates at room temperature for about 60 mins. The plates were washed 3 times with phosphate-buffered saline. The plates were stained with about 1 μg/mL of an anti-FITC antibody followed by about 1 μg/mL of horse-radish peroxidase-conjugated anti-mouse IgG. The plates were washed and bound peroxidase activity was measured by adding about 100 μL/well of ABTS solution (about 0.4 mg/mL of 2,2′ azino-di(3-ethylbenzthiazoline-6-sulfonic acid), about 0.003% of H2O2, about 100 mM of phosphate-citrate, pH 4.0) for about 30 min at room temperature.
(An ELISA detects its analyte on a solid surface through an enzyme-linked reagent.)

The target in series [3] is T1, mβG-eB7. Briefly: Biodistribution by optical imaging of whole-body frozen sections after i.v. FDGlcU or fluorescein. It is filed as in vivo. As to conditions: 30 minutes after i.v. injection of 500 μg. The method, then:
In vivo biodistribution of fluorescein was measured around 30 minutes after i.v. injection of the substrate, FDGlcU, (left panel) or fluorescein (right panel). The biodistribution of activated FDGlcU was examined by killing tumor-bearing mice 30 minutes after they received an injection of FDGlcU or fluorescein and then performing optical imaging of whole-body frozen sections. The intensity of the fluorescence of whole-body sections was measured with the IVIS® Imaging System 50 (Xenogen, Alameda, Calif.).
For example, mice (n=3) were i.v. injected with 500 μg FDGlcU or fluorescein 30 min before the mice were dipped into isopentane at liquid nitrogen temperatures and embedded on a cryostat holder (7×5 cm) in 4% carboxylmethylcellulose. The fluorescence signals of 30 μm whole-body sections were measured on a IVIS® Imaging System 50 (Xenogen, Alameda, Calif.) and the regions of interest were analyzed with Living Image® software (Xenogen).
FIG. 9 is a graph showing a comparison of the results of the example of FIG. 8 in different organ regions of interest according to one embodiment of the invention. After i.v. injection of FDGlcU or fluorescein, mice were analyzed with Living Image® software. […] The fluorescent intensity in CT26/mβG-eB7 tumors was about 240 times greater than in the CT26 tumors (FIG. 9). Fluorescent signals were also observed in the intestinal tract.

The target of series [4] is T1, mβG-eB7. Briefly: ^124I-trap-glu conversion by CT26/mβG-eB7 or CT26 cells, bound radioactivity in gamma-counter. As to conditions: graded concentrations, room temperature, about 40 mins. The format is cell-based. The method, then:
Graded concentrations of the ^124I-trap-glu probe/substrate were incubated with CT26/mβG-eB7 (▪) or CT26 cells (□) in phosphate-buffer saline at room temperature for about 40 mins. The plates containing the transfected cells were washed and bound radioactivity was measured in a gamma-counter.

Series [5] deals with T2, hβG-eB7 (UniProt P08236+Q00609, L649P).
T2 construct: expressed in transfected cells; host or cells: EJ human bladder carcinoma cells, retroviral transduction with pLNCX-hβG-eB7; tumours in nude mice
T2 sequence (P08236+Q00609 with tags, fused parts or gaps P08236:L649P): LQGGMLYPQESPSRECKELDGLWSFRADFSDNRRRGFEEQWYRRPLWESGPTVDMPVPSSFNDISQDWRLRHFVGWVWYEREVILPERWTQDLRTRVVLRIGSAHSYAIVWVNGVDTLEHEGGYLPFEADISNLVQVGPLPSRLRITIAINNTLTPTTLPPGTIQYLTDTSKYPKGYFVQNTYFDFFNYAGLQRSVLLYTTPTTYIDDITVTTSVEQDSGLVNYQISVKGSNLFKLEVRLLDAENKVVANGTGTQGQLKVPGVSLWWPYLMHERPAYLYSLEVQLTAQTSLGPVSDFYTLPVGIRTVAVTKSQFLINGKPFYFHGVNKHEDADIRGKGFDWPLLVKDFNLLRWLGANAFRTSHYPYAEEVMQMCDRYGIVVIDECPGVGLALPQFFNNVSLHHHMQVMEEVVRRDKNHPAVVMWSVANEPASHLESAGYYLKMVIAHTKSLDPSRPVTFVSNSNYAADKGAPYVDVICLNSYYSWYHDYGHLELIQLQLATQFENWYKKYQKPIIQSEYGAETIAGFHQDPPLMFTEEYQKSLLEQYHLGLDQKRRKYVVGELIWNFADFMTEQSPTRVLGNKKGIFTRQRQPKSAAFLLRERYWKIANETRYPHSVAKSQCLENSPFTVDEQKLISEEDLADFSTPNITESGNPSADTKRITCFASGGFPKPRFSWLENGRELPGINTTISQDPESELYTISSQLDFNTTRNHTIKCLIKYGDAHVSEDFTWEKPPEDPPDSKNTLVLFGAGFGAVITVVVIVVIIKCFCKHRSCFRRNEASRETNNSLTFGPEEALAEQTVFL
Briefly: In vivo imaging of FDGlcU in nude mice bearing EJ and EJ/hβG-eB7 tumors. The conditions noted are these: 500 μg i.v. Also on record: species or system human. The method, then: Retroviral vector pLNCX-hβG-eB7 was constructed and infected to EJ human bladder carcinoma cells (EJ/hβG-eB7) to express functionally active human β-glucuronidase on the membrane. hβG-eB7 was imaged in nude mice (n=3) bearing established EJ and EJ/hβG-eB7 tumors (200-300 mm^3) in their left and right chest regions, respectively, by i.v. injecting 500 μg FDGlcU and performing imaging and histological analysis of fluorescent intensity and βG activity as described above.
FDGlcU was i.v. injected into mice bearing EJ (left) and EJ/hβG-eB7 (right) tumors and whole-body images were acquired at the indicated times (3 mins, 30 mins, 60 mins). […] Live EJ cells (open curve) and EJ/hβG-eB7 cells (solid curve) were immunofluorescence stained for the myc epitope (left panel) or incubated with FDGlcU (right panel), respectively, and analyzed on a flow cytometer.

Series [6] addresses T1, mβG-eB7. Briefly: FDGlcU hydrolysis on live CT26 and CT26/mβG-eB7 cells, confocal microscopy. The conditions noted are these: 40 μM FDGlcU, pH 6.5, 37° C., 40 minutes. The format is cell-based. The method, then:
For example, functional expression of membrane bound β-glucuronidase on a host cell can be measured by incubating the host cells (with and without the recombinant reporter gene systems, such as CT26 or CT26/mβG-eB7 cells) with 40 μM FDGlcU (Invitrogen, Calsbad, Calif.) in phosphate-buffered saline containing 0.1% BSA, pH 6.5 at 37° C. for 40 minutes and then staining the cells with anti-myc antibody (5 μg/ml, clone Myc 1-9EIO.2, American Type Culture Collection, Manassas, Va.) at about 4° C. for about 1 hour. The cells can be washed with cold phosphate-buffered saline and incubated with rhodamine-conjugated rabbit anti-mouse IgG antibody (5 μg/ml) at about 4° C. for about 1 hour. The cells are then washed with cold phosphate-buffered saline, mounted with fluorescence mounting medium (anti fade; DakoCytomation, Carpinteria, Calif.), and viewed under a digital fluorescence confocal microscope.

Series [7] addresses T1, mβG-eB7. The experiment in a line: In vivo whole-body optical imaging of FDGlcU activation in mice bearing CT26 and CT26/mβG-eB7 tumors. The conditions noted are these: Balb/c mice, 500 μg i.v. On the procedure: To investigate whether expression sites of membrane bound β-glucuronidase reporter system could be non-invasively detected (in vivo imaging), Balb/c mice bearing established CT26 and CT26/mβG-eB7 colon tumors in their left and right chest regions, respectively, were intravenously injected with about 500 μg of non-fluorescent FDGlcU. Whole-body images of the mice were acquired by performing 3 minute scans.
As an example, Balb/c mice (n=3) bearing established CT26 and CT26/mβG tumors (200-300 mm^3) in their left and right chest regions, respectively, were i.v. injected with 500 μg FDGlcU. Whole-body images of pentobarbital-anesthetized mice were obtained by performing 3 minutes scans over 90 minutes on a Kodak IS2000MM optical imaging system. The fluorescence intensities were analyzed with KODAK 1D Image Analysis Software.
The distribution of activated FDGlcU in CT26 (open circle) and CT26/mβG-eB7 (black dot) tumors (n=4) was determined by measuring fluorescence intensities in 3 minute scans performed over 90 minutes.

In series [8] the target is T1, mβG-eB7. The experiment in a line: FDGlcU staining of HCC36 cells infected with Ad5/mβG-eB7, flow cytometer. It is filed as cell-based. The text has this:
HCC36 cells (open curve) and HCC36 cells infected with Ad5/mβG-eB7 (solid curve) were stained for the presence of the […] epitope in mβG-eB7 (left panel) or directly stained with FDGlcU (right panel) and then analyzed on a flow cytometer.
As shown by staining of membrane β-glucuronidase with anti-myc antibody in the left panel of FIG. 10, HCC36 cells were successfully infected with Ad5/mβG-eB7.

Series [9] deals with T1, mβG-eB7. Briefly: In vivo imaging of FDGlcU in nude mice with HCC36 tumors injected with Ad5/mβG-eB7. The conditions noted are these: 10^9 pfu intratumoral, FDGlcU i.v. two days later. On the procedure: To image Ad5/mβG-eB7, nude mice (n=3) bearing established HCC36 tumors (200-300 mm^3) in their left and right chest's regions were injected in the right HCC36 tumor with 10^9 pfu of Ad5/mβG-eB7 in 50 μl of phosphate-buffered saline (PBS). Two days later, the mice were i.v. injected with 500 μg of FDGlcU. Whole-body images were obtained in 3 min scans over 2 hour.
After the tumors grew, 10^9 pfu of Ad5/mβG-eB7 was directly injected into the HCC36 tumor on the right side of the mouse. Two days later, the mouse was i.v. injected with FDGlcU and whole-body optical imaging was performed.
Tumor cells were collected 30 minutes after FDGlcU injection were stained with X-GlcA and nuclear fast red and then viewed under phase contrast and fluorescence microscopes.

Recombinant E. coli β-glucuronidase, sequence (P05804 whole entry): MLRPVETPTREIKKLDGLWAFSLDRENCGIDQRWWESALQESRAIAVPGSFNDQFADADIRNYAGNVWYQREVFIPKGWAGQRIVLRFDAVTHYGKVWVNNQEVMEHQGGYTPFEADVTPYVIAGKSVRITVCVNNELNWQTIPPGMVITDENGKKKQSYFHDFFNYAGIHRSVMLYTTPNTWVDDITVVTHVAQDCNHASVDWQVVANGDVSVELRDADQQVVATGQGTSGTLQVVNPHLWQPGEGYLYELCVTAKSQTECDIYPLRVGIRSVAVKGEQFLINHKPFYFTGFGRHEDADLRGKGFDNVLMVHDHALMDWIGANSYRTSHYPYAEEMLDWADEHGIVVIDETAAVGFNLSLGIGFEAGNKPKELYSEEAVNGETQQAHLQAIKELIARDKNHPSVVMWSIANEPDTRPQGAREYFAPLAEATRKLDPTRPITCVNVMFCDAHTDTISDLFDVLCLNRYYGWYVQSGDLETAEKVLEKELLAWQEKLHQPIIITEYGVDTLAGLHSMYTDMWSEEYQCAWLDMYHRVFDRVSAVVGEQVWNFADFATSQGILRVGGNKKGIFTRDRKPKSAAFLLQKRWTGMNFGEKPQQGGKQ

For the compound “^124I-phenolphthalin glucuronide [^124I-ph-trap-glu]”, the “conversion of probe to ^124I-trap reporter product in CT26/mβG-eB7 vs CT26 cells” value in series [1] is on record as “specifically converts”.
As to “N-fluorescein-isothiocyanato (3-difluoromethylphenyl)-β-D-glucopyronuronate [FITC-trap-glu]”, the “trapping by β-glucuronidase detected by anti-FITC antibody” value in series [2] was “specific trapping”.
For the compound `O=C1OC2(c3ccc(O)cc3Oc3cc(O)ccc32)c2ccccc21` [fluorescein], in series [3] (tumor-bearing mice), the in vivo biodistribution result is “largely accumulated in the intestinal tract and kidneys”.
With “^124I-difluoromethylphenol glucuronide [^124I-trap-glu]”, in [4], the “conversion of probe to ^124I-trap product in CT26/mβG-eB7 vs CT26 cells” value is recorded as “specifically converts”.
For the compound `O=C1OC2(c3ccc(O[C@@H]4O[C@H](C(=O)O)[C@@H](O)[C@H](O)[C@H]4O)cc3Oc3cc(O[C@@H]4O[C@H](C(=O)O)[C@@H](O)[C@H](O)[C@H]4O)ccc32)c2ccccc21` [FDGlcU, fluorescein di-β-D-glucuronide], the “conversion to fluorescent reporter in EJ/hβG-eB7 vs control EJ tumors” value in series [5] was “preferentially converted to a fluorescent reporter in EJ/hβG-eB7 tumors but not in control tumors”. Moreover, the “conversion of FDGlcU to fluorescein on cells” value in series [6] is recorded as “only CT26/mβG-e-B7 cells”. Further, the “time of highest fluorescence after FDGlcU injection” value in series [7] (3 minute scans over 90 minutes) came out at 30 min. The “conversion of FDGlcU to fluorescein in CT26/mβG tumors vs control CT26 tumors” value in series [7] (whole-body images at 3, 30, 60 mins) is “selectively converted to fluorescein”. In addition, the “fluorescent intensity in CT26/mβG-eB7 tumors relative to CT26 tumors” value in series [3] (whole-body sections) is listed as “about 240 times”. In series [8], the “activation of FDGlcU at Ad5/mβG-eB7 infected HCC36 cells” value is on record as “activated to fluorescent product at the infected cells”. In addition, the “fluorescence of Ad5/mβG-eB7 injected HCC36 tumor vs non-infected HCC36 tumors” value in series [9] was “obvious fluorescence”.

These data come from US20080176225A1, “MEMBRANE BOUND REPORTER GENE SYSTEM” (priority 2007, published 2008).
